SMILES	melting point
COC(=O)C(=NO)c1cnsc1	110 to 112 °C
CN(Cc1ccccc1)c1nccc2ccccc12	53.5 to 54.5 °C
FC(F)(F)c1cccc(CCc2nnc(-c3ccc4ncsc4c3)o2)c1	126 to 127 °C
CC(C)(C)OC(=O)N[C@@H](CC(=O)O)C(=O)OC(C)(C)C	97 to 99 °C
CCCCCC1Cc2cc(OCC(=O)O)c(Cl)c(Cl)c2C1=O (centres undefined)	192 to 195 °C
Cc1ccccc1/C=C/c1c(C(C)C)nc(C(C)C)c(CO)c1-c1ccc(F)cc1	108 to 111 °C
CCOP(=O)(OCC)Oc1cc(C(C)C)c(NC(=O)CN2CCN(CCSc3nc4ccccc4o3)CC2)c(C(C)C)c1	108 to 109 °C
Oc1ncnc2c1c(Nc1cccnc1)nn2Cc1ccccc1	150 to 160 °C
CSc1cc(C)nc(O)n1	165 °C
CCC(=CC(CSc1nnc(C)s1)=NO)C(C)[N+](=O)[O-] (centres undefined)	75 to 76 °C
O=C1CC(=C[N+](=O)[O-])Nc2ccccc2N1c1ccccc1	231 to 234 °C
CON1C=C2N=NC3=C(N2C1)N(c1ccccn1)CC(C)=C3	216 to 220 °C
CCOC(=O)C1=C(N)NC(N)=C(C(=O)OCC)C1c1ccccc1N=[N+]=[N-]	250 °C
CC(C)(C)C(C)(O)C(Cn1cncn1)Oc1ccc(Cl)cc1 (centres undefined)	150 °C
O=C(O)CCCC(O)c1ccc(Cl)cc1 (centres undefined)	85 to 87 °C
CCCSc1ncc(C(=O)N[C@H](C(=O)O)[C@@H](C)CC)n1Cc1ccccc1Cl	156 to 158 °C
c1ccc(COc2ccc(Nc3ncnc4ncccc34)cc2)cc1	235 to 237 °C
C[C@H](Nc1c(-c2c(F)cc(F)cc2F)c(Br)nc2ncnn12)C(F)(F)F	95 to 97 °C
CC(C)n1cc(-c2nc(C(N)=O)c(N)nc2-c2cccc(Cl)c2)ccc1=O	233 °C
c1ccc(-c2n[nH]c3c2sc2ccccc23)cc1	236 to 238 °C
N#Cc1ccc(CBr)c(C#N)c1	106 °C
COc1ccc(CCOc2ccnc(-c3cccc(C(=O)O)c3)c2)cc1OC	194 to 195 °C
COc1ccc(C(=O)NC2N=C(c3ccccc3F)c3ccccc3NC2=O)cc1 (racemic)	231 to 233 °C

SMILES	melting point
CC(C)OCCNC(=O)c1ccn2nc(-c3ccccc3)c(-c3ccc(=O)n(C(C)C)n3)c2c1	124 to 125 °C
CC(C)c1ccc(C(=O)Cc2c(Cl)cccc2Cl)c(C(C)C)c1OS(N)(=O)=O	203 to 205 °C
COc1cc(COc2nn(Cc3ccccc3)cc2CO)ccc1OCc1nc(-c2ccccc2)oc1C	90 to 91 °C
Cc1c(NC(=O)N2CC[C@H](O[Si](C)(C)C(C)(C)C)[C@H]2CO)ccc(C#N)c1Cl	174 to 176 °C
O=C(Nc1cccc(-c2ccnc3c(C(=O)c4cccs4)cnn23)c1)c1cn[nH]c1	165 to 170 °C
CNC(=S)NNCC1CC2c3cccc4[nH]cc(c34)CC2N(C)C1 (centres undefined)	220 to 221 °C
Cc1oc(-c2ccccc2)nc1CCOc1ccc(C[C@H](OC(C)C)C(=O)O)c2sccc12	167 to 168 °C
Cc1cc(Cn2c(-c3ccccc3)nc(Cl)c2CC(=O)O)ccc1OCc1ccccc1	177 to 178 °C
Cc1cc(COc2ccc(S(=O)(=O)NC[C@@H](C(=O)NO)N3CCN(C(=O)OCc4ccccc4)CC3)cc2)c2ccccc2n1	162 °C
Oc1ccc(OC[C@@H](O)CNCCc2ccc(-n3c(-c4ccc(C5CCCCC5)cc4)nc4cccnc43)cc2)cc1	100 to 102 °C
Nc1c(-c2cc(Cl)ccc2O)c2c(C(F)(F)F)cc(C(F)(F)F)cc2[nH]c1=O	230 to 233 °C
Cn1c(=O)c2c(ncn2CCCN2CC=C(c3c[nH]c4ccccc34)CC2)n(C)c1=O	243 °C
CCC=Cc1nc2ccccc2n1Cc1ccc(C#N)cc1	125 °C
O=C1c2ccccc2C(=O)N1CCCn1cc(S(=O)(=O)c2ccccc2)c2ccccc21	205 to 206 °C
CN(C)C=C1C(=O)N(C)C(=O)N1c1cccc(C(F)(F)F)c1	103 to 104 °C
CCCC1(C)C(=O)N(CCl)S(=O)(=O)N1C (centres undefined)	99 to 100 °C
CCN(CC)CC(O)CNC(=O)c1c(OCc2ccccc2)c2ccccc2n1-c1ccccc1 (centres undefined)	80 to 81 °C
Cn1c(=O)n(-c2ccccc2)c(=O)n1SC(Cl)(Cl)Cl	154 °C
CCOC(=O)Cc1ccc(NCCNC(=O)C2Cc3ccccc3N2S(=O)(=O)c2ccc(-c3cc(C(F)(F)F)ccc3Cl)cc2)cc1 (centres undefined)	55 to 63 °C
C[C@@H]1CN(C(=O)[C@@](C)(O)C(F)(F)F)[C@@H](C)CN1S(=O)(=O)c1cccs1	116 to 117 °C
CC1N=C(c2ccccc2Cl)c2cc([N+](=O)[O-])ccc2N(C)C1=O (single isomer, unassigned; (+))	156 to 158 °C
CSCCOC(=O)N(C)c1nnc(-c2cncc(F)c2)s1	104 to 106 °C

Further lines, results first:

melting point	SMILES
189 to 190 °C	O=C(O)c1csc(-c2ccc(Cl)cc2)n1
156 to 157 °C	Cn1nccc1NC(=O)N1CCN(c2nc(-c3ccccc3F)cs2)CC1
114 °C	Clc1cccc(C2(Cn3cncn3)OCCO2)c1
200 °C	CC1=C(n2ccccc2=O)c2cc([N+](=O)[O-])ccc2OC1(C)C
115 to 117 °C	CCOC(=O)c1c(S(=O)(=O)c2ccc(C)cc2)nc(-c2ccccc2)c([N+](=O)[O-])c1C(=O)OCC
85 to 86 °C	CCCC(=O)c1cnc2ccc(COCc3ccccc3)cc2c1Cl
253 to 254 °C	Nc1ccccc1C(=O)Nc1nnn[nH]1
132 to 134 °C	CCc1cc(C(=O)O)c(OC(C)=O)cc1C
56 to 58 °C	CCC(C)(CC)c1ccc(N)nn1
147 to 148 °C	COCCOCc1ccc(-c2ccc(C(=O)Nc3ccc(OC)c(N4CCN(C)CC4)c3)cc2)c(C)c1
238 to 242 °C	NS(=O)(=O)c1ccc(N2CCN(Cc3cn4ccccc4n3)CC2)cc1
262 °C	Cc1[nH]c(=O)n(C2CCCCC2)c1-c1ccc(OCc2ccccc2)cc1
204 to 206 °C	O=C1N(Cc2ccc(N3CCOCC3)cn2)c2ccccc2C12COc1cc3c(cc12)OCCO3 (centres undefined)
94 to 95 °C	CC(C)(C)OC(=O)NCCc1ccc(CC(=O)O)cc1
218 to 219 °C	CC(C)Cn1c(CONC(=O)NC(C)C)nc2c(N)nc3ccccc3c21
145 to 150 °C	CCCS(=O)(=O)Nc1ccc2c(c1)S(=O)(=O)C=C(c1c(O)c3cc(F)ccc3n(CCC3CC3)c1=O)N2
155 to 156 °C	Cc1ccccc1-c1nnc(N2CCC(O)CC2)nc1-c1ccccc1C
223 °C	O=C(Nc1cc2cn[nH]c2cc1Cl)c1ccccc1NCc1ccncc1
196 to 198 °C	COC(=O)C1(O)C(=O)Nc2ccc(C(F)(F)F)cc2CC1c1ccc(OC)cc1 (centres undefined)
> 250 °C	CS(=O)(=O)Nc1cc2occ(S(C)(=O)=O)c(=O)c2cc1Oc1ccccc1
142 °C	CCCC(=O)c1ccnc(Cl)c1NC(=O)c1ccccc1F
143 to 146 °C	COc1ccc(C(=O)c2cc3cc(Br)ccc3o2)cc1
118 to 119 °C	C#CCN1Cc2cccnc2N(c2cccc(Br)c2)C1=O
> 250 °C	O=C1N(c2c(Cl)cccc2Cl)Cc2cnc(Nc3ccccc3)nc2N1c1cccc(CCO)c1
244 to 245 °C	O=C(O)C1CCc2[nH]c3ccc(Cl)c(Cl)c3c2C1 (centres undefined)
80 to 81 °C	C(=C1CNCCN1)c1ccccc1
143 to 145 °C	NC(=O)c1cc(NCc2c(F)c(F)c(C(F)(F)F)c(F)c2F)ccc1O

melting point	SMILES
77 to 78 °C	O=C1c2ccccc2CCn2cc(SC(F)(F)F)cc21
71 to 73 °C	COc1cc(N)c(Cl)cc1C(=O)NCC1CCN(CCCCOc2ccccc2)CC1
175 to 177 °C	O=C(O)c1ccccc1COc1ccccc1Br
164 to 168 °C	Cc1nc(N2CCc3ccccc3CC2)c(C#N)c(=O)n1CCO
80 °C	CC(C)(C)c1cc(Cl)c(Cl)cc1[N+](=O)[O-]
123 to 124 °C	CC(C)N1C(=O)c2cccc(Cl)c2N(C#N)S1(=O)=O
66 to 69 °C	CCOC(=O)c1cc(-c2ccccc2)nc2c(N)cccc12
137 to 140 °C	COc1nc2cccc(C=O)c2nc1OC
229 to 231 °C	CC(=O)Nc1cnc(C=NNC(N)=S)cc1C
128 to 130 °C	CC(=O)NCc1ccc(C(C)N2CCN(c3ccc(F)cc3)CC2)cc1 (centres undefined)
147 °C	CCOCCn1c(SC2CCN(C(=O)c3cc(C)cc(C)c3)C(Cc3ccccc3)C2)nc2ccccc21 (centres undefined)
263 to 266 °C	Cc1cccc(NC(=O)NC2CC(c3ccccc3)c3ccccc3N(CC(=O)NC(C)(C)C)C2=O)c1 (centres undefined)
56 to 58 °C	Cc1cc([N+](=O)[O-])ccc1NCC1CCCO1 (centres undefined)
116 to 117 °C	COC(=O)/C=C/c1ccc(OCc2nc(-c3ccccc3)oc2C)nc1
68 °C	Cc1nc(-c2ccccc2)c(C)c(=O)o1
199 °C	COc1cccc(OC)c1NC(=O)c1ccc2nc(N[C@@H]3CCc4ccccc43)ccc2c1
> 300 °C	NCc1cccc2c1CN(c1nc3c(cc1F)c(=O)c(C(=O)O)cn3C1CC1)C2
150 °C	Cc1cc(COc2ccc(S(=O)(=O)NC[C@@H](C(=O)NO)N3CCCCC3)cc2)c2ccccc2n1
151 °C	Cc1ccccc1-c1cc(C(F)(F)F)n2cnc(C#N)c2n1
124 to 126 °C	CCC1C(=O)Nc2ccc3ccccc3c21 (centres undefined)
195 to 196 °C	COC(=O)CCc1cc2c(OC)cccc2n1Cc1ccccc1
73 to 74 °C	Cc1nc(N(C)C)ncc1OCc1ccccc1
115 to 117 °C	NC(=S)Nc1ccc(Cl)c(Cl)c1Cl
46 to 52 °C	CCC(CC)Nc1cc(COC(C)=O)c([N+](=O)[O-])cc1[N+](=O)[O-]
53 to 57 °C	CN1CCC2(C)c3cc(C(=O)C(=O)OCc4ccccc4)ccc3N(C)C12 (centres undefined)
159 to 161 °C	Cc1oncc1CN1C(=O)C2(COc3cc4c(cc32)OCO4)c2ccccc21 (centres undefined)
126 to 127 °C	Cc1oc(-c2ccccc2)nc1COc1cc(COc2nn(C)cc2CC(=O)O)ccn1
